The values below come from US20220144809A1, “COMPOUNDS AND METHODS FOR THE TARGETED DEGRADATION OF ANDROGEN RECEPTOR AND ASSOCIATED METHODS OF USE” (Arvinas Operations, Inc., priority 2020, published 2022).

Each structure is given as a SMILES string.

This experiment has as its system Androgen Receptor (AR). In words: Androgen Receptor ELISA assay (AR degradation in LNCaP and/or VCaP cells). It counts as cell-based. The settings on record: degradation of AR, 5 hours incubation, R1881 in media. How it is done: Assay for Testing AR Degradation Driven by Compounds of the Present Disclosure.
Androgen Receptor ELISA Assay. Compounds were evaluated in the following assay in LNCaP and/or VCaP cells utilizing similar protocols. The protocols used with VCaP cells are described below. The androgen receptor ELISA assay was performed using PathScan AR Sandwich ELISA (Cell Signaling Catalog#12850) according to the following assay steps.
VCaP cells were seeded at 40,000 cells/well at a volume of 100 μL/well in VCaP assay medium [Phenol red free RPMI (Gibco Cat#11835-030); 5% Charcoal Stripped (Dextran treated) FBS (Omega Scientific, Cat#FB-04); 1% penstrep (Life Technologies, Gibco Cat#: 10378-016)] in Corning 3904 plates. The cells were grown for a minimum of 3 days.
First, cells were dosed with compounds diluted in […]—in a polypropylene plate avoiding the use of outer columns according to the following protocol: (1)(i) 1000× stock plate in DMSO was made; (ii) 20 mM stock diluted 1/6.7 with DMSO (5 μL+28.3 μL DMSO)=3 mM into row H; (iii) serial dilutions in ½ log doses (10 μL of bifunctional compound+20 μL DMSO) was performed from row H towards row B with row A being reserved for DMSO; (iv) 7 doses total (final concentration in this 1000× plate will be 3 mM, 1 mM, 333 μM, 111 μM, etc). (2)(i) A 10× stock plate in media was made; (ii) 2.5 μL of the 1000× stock was trasnferred to a new 10× stock plate (use 12 channel pipet, start at A (DMSO control) work thru H. When 247.5 μL of media was added to this plate, it served as a 10× stock; (iii) made media+1 nM R1881 for making 10× stock plate; (iv) added 247.5 μL of media with 1 nM R1881 to each well of the 10× stock plate, mix.
Then 22 μL of 10× stock was added to cells and incubated for 5 hours. 1× Cell Signaling Cell lysis buffer was made (Catalogue #9803; comes with the kit) to have […], and was kept on ice. Media was aspirated, and 100 μL 1× cell lysis buffer/well was added. The cells were placed on a shaker located in a cold room for 10 minutes and shaken at speed 7. The lysate mixture was mix and 20 μL transferred to 100 μl of Diluent in ELISA plate (0.15 μg/ml-0.075 μg/ml). The lysate-diluent mixture was store at 4° C. overnight on a shaker located in a cold room at speed 5 (gentle swirl).
The lysate-diluent mixture was shaken for 30 minutes at 37° C. The mouse AR antibody, anti-mouse antibody, TMB, and STOP solution were allowed to come to room temperature. The 1×ELISA buffer included in kit was made and loaded in reservoir. Media from the plate was discarded, the ELISA plate was tapped hard on paper towel, and washed 4×200 μl ELISA wash buffer using a plate washer for the first three washes and an eight channel aspirator for the fourth wash to more thoroughly aspirate the solution.
Next, 100 μL/well of mouse AR detection Ab was added; the plate was covered and shaken at 37° C. for 1 hour; media was discarded from the plates, the plates tapped on a paper towel and washed four times with 200 μL ELISA wash buffer with a plate washer for the first three washes and an eight channel aspirator for the fourth wash; 100 μL/well of anti-mouse—HRP conjugated Ab (comes with the kit) was added; the plates wascover and shaken at 37° C. for 30 minutes; the TMB reagent was allowed to come to room temperature; the media from the plate was discarded, the plates tapped on paper towel, and washed four times with 200 μL ELISA wash buffer with a plate washer for the first three washes and an eight channel aspirator for the fourth wash; plates were tapped on paper towl; 100 μL TMB was added to each well and the plate shaken for 2 minutes—while watching color. STOP solution (100 μL) was added when light blue color developed. The plates were shake and read at 450 nm.
Data was analyzed and plotted using GraphPad Prism software. Exemplary compounds of Table 1 were assayed and the data shown below in Table 2. […]
On the technique in general: ELISA stands for enzyme-linked immunosorbent assay.
Consider `CC(C)N(CC1CCN(CCCCn2c(=O)n(-c3ccc(C#N)c(C(F)(F)F)c3)c3ccccc32)CC1)[C@H]1C[C@H](Oc2ccc3c(c2)C(=O)N(C2CCC(=O)NC2=O)C3=O)C1` (stereo partly drawn) [Compound 24, 4-(3-(4-(4-((((1r,3r)-3-((2-(2,6-dioxopiperidin-3-yl)-1,3-dioxoisoindolin-5-yl)oxy)cyclobutyl)(isopropyl)amino)methyl)piperidin-1-yl)butyl)-2-oxo-2,3-dihydro-1H-benzo[d]imidazol-1-yl)-2-(trifluoromethyl)benzonitrile], for which the DC50 is ≥ 100 nM and the “Dmax Code” value is reported as “C (C<50)”.

With `CCN(CC1CCN(c2ccc(CN3C(=S)N(c4ccc(C#N)c(C(F)(F)F)c4)C(=O)C3(C)C)cn2)CC1)[C@H]1C[C@H](Oc2ccc3c(c2)C(=O)N(C2CCC(=O)NC2=O)C3=O)C1` (stereo partly drawn) [Compound 4, 4-(3-((6-(4-((((1r,3r)-3-((2-(2,6-dioxopiperidin-3-yl)-1,3-dioxoisoindolin-5-yl)oxy)cyclobutyl)(ethyl)amino)methyl)piperidin-1-yl)pyridin-3-yl)methyl)-4,4-dimethyl-5-oxo-2-thioxoimidazolidin-1-yl)-2-(trifluoromethyl)benzonitrile], the half-maximal degradation concentration (DC50) is < 1 nM and the “Dmax Code” value is reported as “C (C<50)”.

As for `N#Cc1ccc(N2C(=O)C3(CCC3)N(c3ccc(N4CCC(CN5CCN(c6ccc7c(c6)C(=O)N(C6CCC(=O)NC6=O)C7=O)CC5)CC4)c(F)c3)C2=S)cc1Cl` (stereo not drawn) [Compound 5, 2-chloro-4-(5-(4-(4-((4-(2-(2,6-dioxopiperidin-3-yl)-1,3-dioxoisoindolin-5-yl)piperazin-1-yl)methyl)piperidin-1-yl)-3-fluorophenyl)-8-oxo-6-thioxo-5,7-diazaspiro[3.4]octan-7-yl)benzonitrile], the 50% degradation concentration (DC50) is < 1 nM and the “Dmax Code” value is reported as “A (A≥70)”.

Consider `COc1cc(N2C(=O)C3(CCC3)N(c3ccc(N4CCC(CN5CCN(c6ccc7c(c6)C(=O)N(C6CCC(=O)NC6=O)C7=O)CC5)CC4)c(F)c3)C2=S)ccc1C#N` (stereo not drawn) [Compound 6, 4-(5-(4-(4-((4-(2-(2,6-dioxopiperidin-3-yl)-1,3-dioxoisoindolin-5-yl)piperazin-1-yl)methyl)piperidin-1-yl)-3-fluorophenyl)-8-oxo-6-thioxo-5,7-diazaspiro[3.4]octan-7-yl)-2-methoxybenzonitrile], for which the half-maximal degradation concentration (DC50) lay in the range of 1 to 10 nM and the “Dmax Code” value is reported as “A (A≥70)”.

Take `N#Cc1ncc(N2C(=O)C3(CCC3)N(c3ccc(OC4CCN(CC5CCN(c6ccc7c(c6)C(=O)N(C6CCC(=O)NC6=O)C7=O)CC5)CC4)nc3)C2=S)cc1C(F)(F)F` (stereo not drawn) [Compound 12, 5-(5-(6-((1-((1-(2-(2,6-dioxopiperidin-3-yl)-1,3-dioxoisoindolin-5-yl)piperidin-4-yl)methyl)piperidin-4-yl)oxy)pyridin-3-yl)-8-oxo-6-thioxo-5,7-diazaspiro[3.4]octan-7-yl)-3-(trifluoromethyl)picolinonitrile]: the half-maximal degradation concentration (DC50) lay in the range of 1 to 10 nM and the “Dmax Code” value is given as “B (50≤B<70)”.

Consider `N#Cc1ncc(N2C(=O)C3(CCC3)N(c3ccc(N4CCC(CN5CCN(c6ccc7c(c6)C(=O)N(C6CCC(=O)NC6=O)C7)CC5)CC4)cc3)C2=S)cc1Cl` (stereo not drawn) [Compound 2, 3-chloro-5-(5-(4-(4-((4-(2-(2,6-dioxopiperidin-3-yl)-3-oxoisoindolin-5-yl)piperazin-1-yl)methyl)piperidin-1-yl)phenyl)-8-oxo-6-thioxo-5,7-diazaspiro[3.4]octan-7-yl)picolinonitrile], for which the 50% degradation concentration (DC50) is < 1 nM and the “Dmax Code” value was “A (A≥70)”.

For `N#Cc1ccc(N2C(=O)C3(CCC3)N(c3ccc(N4CCC(CN5CCN(c6ccc7c(c6)C(=O)N(C6CCC(=O)NC6=O)C7=O)CC5)CC4)cc3)C2=S)cc1Cl` (stereo not drawn) [Compound 9, 2-chloro-4-(5-(4-(4-((4-(2-(2,6-dioxopiperidin-3-yl)-1,3-dioxoisoindolin-5-yl)piperazin-1-yl)methyl)piperidin-1-yl)phenyl)-8-oxo-6-thioxo-5,7-diazaspiro[3.4]octan-7-yl)benzonitrile], the half-maximal degradation concentration (DC50) was in the range of 1 to 10 nM and the “Dmax Code” value is “A (A≥70)”.

`CC(C)N(CC1CCN(CCCn2c(=O)n(-c3ccc(C#N)c(C(F)(F)F)c3)c3ccccc32)CC1)[C@H]1C[C@H](Oc2ccc3c(c2)C(=O)N(C2CCC(=O)NC2=O)C3=O)C1` (stereo partly drawn) [Compound 23, 4-(3-(3-(4-((((1r,3r)-3-((2-(2,6-dioxopiperidin-3-yl)-1,3-dioxoisoindolin-5-yl)oxy)cyclobutyl)(isopropyl)amino)methyl)piperidin-1-yl)propyl)-2-oxo-2,3-dihydro-1H-benzo[d]imidazol-1-yl)-2-(trifluoromethyl)benzonitrile]: the DC50 is ≥ 100 nM and the “Dmax Code” value is “C (C<50)”.

As to `CC(C)N(CC1CCN(c2ccc(CCn3c(=O)n(-c4ccc(C#N)c(C(F)(F)F)c4)c4ccccc43)cc2)CC1)[C@H]1C[C@H](Oc2ccc3c(c2)C(=O)N(C2CCC(=O)NC2=O)C3=O)C1` (stereo partly drawn) [Compound 17, 4-(3-(4-(4-((((1r,3r)-3-((2-(2,6-dioxopiperidin-3-yl)-1,3-dioxoisoindolin-5-yl)oxy)cyclobutyl)(isopropyl)amino)methyl)piperidin-1-yl)phenethyl)-2-oxo-2,3-dihydro-1H-benzo[d]imidazol-1-yl)-2-(trifluoromethyl)benzonitrile], the DC50 fell in the range of 10 to 100 nM and the “Dmax Code” value is given as “C (C<50)”.

On to `CC(C)N(CC1CCN(c2ccc(N3C(=S)N(c4cnc(C#N)c(C(F)(F)F)c4)C(=O)C34CCC4)cn2)CC1)[C@H]1C[C@H](Oc2ccc3c(c2)C(=O)N(C2CCC(=O)NC2=O)C3=O)C1` (stereo partly drawn) [Compound 13, 5-(5-(6-(4-((((1r,3r)-3-((2-(2,6-dioxopiperidin-3-yl)-1,3-dioxoisoindolin-5-yl)oxy)cyclobutyl)(isopropyl)amino)methyl)piperidin-1-yl)pyridin-3-yl)-8-oxo-6-thioxo-5,7-diazaspiro[3.4]octan-7-yl)-3-(trifluoromethyl)picolinonitrile], for which the half-maximal degradation concentration (DC50) lay in the range of 1 to 10 nM and the “Dmax Code” value is reported as “C (C<50)”.

With `Cc1c(C#N)c(-c2ccc(C#N)cc2)c(C)n1Cc1ccc(N2CCC(CN3CCN(c4ccc5c(c4)C(=O)N(C4CCC(=O)NC4=O)C5=O)CC3)CC2)cc1` (stereo not drawn) [Compound 18, 4-(4-cyanophenyl)-1-(4-(4-((4-(2-(2,6-dioxopiperidin-3-yl)-1,3-dioxoisoindolin-5-yl)piperazin-1-yl)methyl)piperidin-1-yl)benzyl)-2,5-dimethyl-1H-pyrrole-3-carbonitrile], the half-maximal degradation concentration (DC50) was ≥ 100 nM and the “Dmax Code” value was “C (C<50)”.

On to `CC(C)N(C[C@H]1C[C@H](Oc2ccc(N3C(=S)N(c4cnc(C#N)c(C(F)(F)F)c4)C(=O)C34CCC4)cn2)C1)[C@H]1C[C@H](Oc2ccc3c(c2)C(=O)N(C2CCC(=O)NC2=O)C3=O)C1` (stereo partly drawn) [Compound 8, 5-(5-(6-((1R,3r)-3-((((1r,3R)-3-((2-(2,6-dioxopiperidin-3-yl)-1,3-dioxoisoindolin-5-yl)oxy)cyclobutyl)(isopropyl)amino)methyl)cyclobutoxy)pyridin-3-yl)-8-oxo-6-thioxo-5,7-diazaspiro[3.4]octan-7-yl)-3-(trifluoromethyl)picolinonitrile], for which the half-maximal degradation concentration (DC50) fell in the range of 1 to 10 nM and the “Dmax Code” value was “C (C<50)”.

As a reminder, the DC50 is the concentration at which degradation of the target reaches its halfway point. A high value points to degradation only at high concentration.
